Here are results for three compounds from publication PMC5628898, “Does consumption of red grapefruit juice alter naringenin concentrations in milk produced by breastfeeding mothers?” (PLoS ONE, 2017).

Like-named read-outs stand apart in the source and are kept apart here.

The conditions of data set [1]: rat, cited from earlier work.
Data set [2] in a line: Naringenin concentration in milk of breastfeeding mothers on naringenin-restricted diet, before and after 250 ml red grapefruit juice (HPLC after deconjugation). It is filed as in vivo. To be noted: for k el / Cmax / AUC, mean / AUC, median: human milk; for k el: last points; for Cmax / AUC, mean / AUC, median: n 14; for AUC, mean / AUC, median: trapezoidal method. From the text: Prior to enrollment, each volunteer was informed about the course and aim of the study, and signed the informed consent. They were also provided with oral and written instructions on the diet that disallowed consumption of any naringenin-containing foods and beverages. The volunteers agreed to follow the diet and not to take any vitamin supplements or any other food supplements for the duration of their participation in the study. They followed the diet for a total of 5 days, refraining from eating foods containing larger quantities of naringenin, such as citrus fruits, citrus fruit juices, citrus fruit pulps, tomatoes and tomato-containing food products, aromatic herbs. For the first two days of the study (pre-exposure) the volunteers collected breast milk samples every 12 hours, each in the amount of four to six ml. On the third day of the study they drank a single 250 ml serving of red grapefruit juice (a 250 ml bottle) in the morning on an empty stomach. In this part of the experiment, the volunteers collected breast milk samples at the following time points: 0 (directly before drinking the juice) and 1, 2, 3, 4, 5, 6, 12, 18, 24, 36 hours post-exposure. Milk samples were collected from full breasts. Milk was collected into chemically pure disposable plastic test tubes.
The samples were frozen by the volunteers at –20°C, regularly collected from the volunteers by the investigator, transported in a laboratory deep freezer, and frozen to –80°C until analysis. Each sample was labelled with the volunteer's initials and with the date and time of sampling. During the study, we remained in constant telephone contact with the volunteers. A commercial 100% grapefruit juice originating from ecological farms in Israel, in 250 ml bottles, were used in the study. The juice was purchased from a local grocery wholesaler. All the bottles were labelled with the same lot number.
Naringenin was extracted according to the method described by Song et al. with minor changes. In brief, an aliquot (0.5 ml) of undiluted human milk was defatted two times with 2-ml of hexane. After the lipid removal, 25 μl of L-Ascorbic acid (2.7 mmol/l in ultrapure water), 25 μl of Na2-ethylenediaminetetraacetic acid (2.2 mmol/l in ultrapure water) and 3 ml of pepsin (40 mg/ml in 0.1 N HCl) were added. The samples were incubated in a ThermoMixer C (Eppendorf AG., Germany) for 15 min at 37°C and at 300 rpm. Then, the pH of the sample was adjusted to 4.5 with 1.0 N NaOH and 3.86 kU of β-glucuronidase with sulfatase contaminant was added. Afterwards the samples were incubated for 45 min at 37°C and at 300 rpm in a ThermoMixer C. After deconjugation the potential metabolites (glucuronides and sulfate derivatives) to aglycones using β-glucuronidase/sulfatase treatment, naringenin was extracted with a 3-ml aliquot of ethyl acetate of tree times, dried under vacuum and resuspended in 200 μl of mobile phase B before analysis.
Naringenin analysis was done on a Shimadzu HPLC system (Kyoto, Japan), equipped with binary pump (LC-20 AD), degasser (DGU-20A3), refrigerated autosampler (SIL-20 AC, set at 8°C), a column oven (CTO-20 AC, 30°C), a diode array detector (SPD-M20A) and a mass spectrometry detector (2010EV). Separations were performed on Kinetex XB-C18 column (100×2.1 mm, 2.6 μm particle size, Phenomenex) at 0.2 ml min^−1 flow rate. The mobile phase consisted of A: 0.4% formic acid in ultrapure water and B: 0.4% formic acid, 0.4% isopropyl alcohol in methanol. The initial conditions of gradient program were set at 98:2 (A/B) followed by a linear gradient to 55:45 (A/B) at 15 min, 20:80 (A/B) at 30 min, 98:2 (A/B) at 35 min and at 40 min, stop. The injection volume was 10 μl. Naringenin was quantified at 287 nm. MS spectra were acquired in positive ion mode over the range of m/z 50–500, both using SCAN and SIM acquisition mode (the set of SIM included 273,25 m/z). […]

The subject of data set [3] is organic anion transporting polypeptide (OATP). Set-up: method as in PMID 23794501. The conditions noted are these: cited from earlier work.
[4] abbreviates: female, human, in vivo, Mean naringenin concentration in human milk.

In the case of `O=C1C[C@@H](c2ccc(O)cc2)Oc2cc(O[C@@H]3O[C@H](CO)[C@@H](O)[C@H](O)[C@H]3O)cc(O)c21` [7-glucoside], the “Time at which increase in serum naringenin concentration was observed” value (“Time at which increase” for short) in data set [1] (in vivo) is on record as “three”.
In the case of `O=C1C[C@@H](c2ccc(O)cc2)Oc2cc(O)cc(O)c21` [naringenin], the “Range of naringenin concentrations in initial (baseline) milk samples” value in data set [2] (female, human, in vivo) lay within 420.86 to 1568.89 nmol/L. The k el in data set [2] (female, human, in vivo, 250 ml, post-exposure segment, n 11, read-out: Kel (elimination constant), mean (converted)) is 3.89e-06 s⁻¹. Besides, the k el in data set [2] (female, human, in vivo, 250 ml, post-exposure segment, n 11, read-out: Kel (elimination constant), median (converted)) is 3.61e-06 s⁻¹. Besides, in data set [2] (female, human, in vivo, 250 ml, post-exposure segment, read-out: Cmax, mean), the Cmax (in general, the maximum level reached in the sampled fluid or tissue) is 908 nM. In data set [2] (female, human, in vivo, 250 ml, post-exposure segment, read-out: Cmax, median), the Cmax was 714 nM. In addition, in data set [2] (female, human, in vivo, 4 h), the “Mean naringenin concentration in human milk” value is 908.253 nmol/L. Further, in data set [2] (female, human, in vivo, 12 h), the “Mean naringenin concentration in human milk” value came to 868.960 nmol/L. In data set [2] (setting [4]), this compound registered a concentration at 0 h of 674 nM, a concentration at 1 h of 773 nM, a concentration at 2 h of 651 nM and a concentration at 3 h of 649 nM. Also, in data set [2] (setting [4]), the concentration at 4 h was 908 nM, the concentration at 5 h was determined as 704 nM, the concentration at 6 h stood at 650 nM and the concentration at 12 h was 869 nM. For the same compound, in data set [2] (setting [4]), the concentration at 18 h amounted to 772 nM, the concentration at 24 h was found to be 728 nM, the concentration at 36 h came out at 702 nM and the concentration at -12 h amounted to 702 nM. In data set [2] (setting [4]), the concentration at -24 h came to 844 nM, the concentration at -36 h stood at 910 nM and the concentration at -48 h is 823 nM. For the same compound, in data set [2] (female, human, in vivo, pre-exposure segment, n 5, read-out: Kel (elimination constant), mean (converted)), the k el is 5.56e-06 s⁻¹. Besides, the k el in data set [2] (female, human, in vivo, pre-exposure segment, n 5, read-out: Kel (elimination constant), median (converted)) is 5.56e-06 s⁻¹. The Cmax in data set [2] (female, human, in vivo, pre-exposure segment, read-out: Cmax, mean) was found to be 910 nM. For the same compound, the maximum concentration (Cmax) in data set [2] (female, human, in vivo, pre-exposure segment, read-out: Cmax, median) is 762 nM. In addition, the Cmax in data set [2] (post-exposure segment, read-out: Cmax, mean) came out at 908 nM. In addition, in data set [2] (post-exposure, 0 h to 36 h), the “AUC, mean” value was 27419 (nmol/l)*h and the “AUC, median” value is given as 23715 (nmol/l)*h. In data set [2] (pre-exposure, -36 h to 0 h), the “AUC, mean” value is 27455 (nmol/l)*h and the “AUC, median” value is recorded as 26515 (nmol/l)*h. In data set [3], the “Inhibition of OATP” value is “potent inhibitor”. Moreover, the “Time at which increase” value in data set [1] (after feeding the compound) is “three”.
In the case of `C[C@@H]1O[C@@H](O[C@H]2[C@H](Oc3cc(O)c4c(c3)O[C@H](c3ccc(O)cc3)CC4=O)O[C@H](CO)[C@@H](O)[C@@H]2O)[C@H](O)[C@H](O)[C@H]1O` [naringin, 4’, 5,7-trihydroxyflavanone-7-rhamnoglucoside], the “Time at which increase” value in data set [1] (after feeding the compound) is on record as “ten”.
